“And” between values parts separate entries of the source, which are not always exact repeats. Equal entries are not always repeated. Where two headings read alike, the source gives them in different places.
Legend:
Callosobruchus chinensis = assay: Insecticidal activity test, treated filter paper in petri dish; assay type: in vivo, Callosobruchus chinensis L.; conditions: adults, 24 hours
Procedure: (§1) Stored-product pests used in the present invention were adult Lasioderma serricome Fab., adult Sitophilus oryzae L. and adult Callosobruchus chinensis L., and it was selected insects were not exposed to any insecticide. L. serricorne was bred in a beaker(10 cm diameter, 15 cm height) with wheat bran, S. oryzae was bred in a platic container(20×20×15 cm) with peanuts, and was bred in a plastic container(26×30×20 cm) with red beans. All insects were maintained at 28±1° C., 55±5% RH(relative humidity) and 16:8 hr(day:night) light condition.
(§2) Right after treatment, paper was transferred to hood and put in hood for about 2 minutes to completely evaporate solvent, and then, the above paper was put on paper treated with 20 adult pests in petri dish and this dish was covered with a lid. 24 hours after insecticide activity was investigated. To faacilitate handling of adult pests by their reducing activity, L. sericorne was put at −4° C. for 2 minutes, S. oryzae was used without this treatment, and C. chinensis was selected by using sucking tube. Healthy pests used in test were selected right before 6 hours of test. They were maintained at 28±1° C., 50-60% RH and 16:8 hr(day:night) light condition.
(§3) Insecticidal activity of salicylaldehyde against stored-product pests was investigated by the insecticidal test of Test 6. Test was repeated 25 times for adult S. oryzae, and 10 times for adult L. serricorne and adult C. chinensis. 10 adult pests were used for each test.

Sitophilus oryzae = assay: as above; assay type: in vivo, Sitophilus oryzae L.; conditions: adults, 24 hours
Procedure: as §1, §2, §3

stored-product pests = assay: Insecticidal activity test, statements not resolved by pest species; assay type: in vivo; conditions: concentration of 1.25 mg
Procedure: as §1, §2

Dermatophagoides farinae = test system: Dermatophagoides farinae
Procedure: (§4) American house dust mite (Dermatophagoides farinae) and European house dust mite (Dermatophagoide pteronyssinus) were maintained at 75±5% RH (relative humidity) at 25±1° C., and were provided a feed mixture of fish meal and multi-vitamins in a ratio of 1 to 1 on a 12.5×10.5×5 cm container.
(§5) The starting concentration is important for the primary screening of bioactive compounds from plant extracts and oils. […] 1 mg of the methanol extracts or oils were suspended with 40 μl of methanol and were transferred to a colorless microtube (2 ml). The microtube was vertically shaken several times to disperse the contents to the wall and cap of the microtube and it was placed in a freeze dryer for 1 hour in order to volatilize the solvent. Twenty-five mites were placed on the prepared microtube, and all treatment groups were transferred to an incubator kept at […]. Active mites only were selected with a fine brush under a microscope. Mortalities were determined with a microscope at 24 hours and 48 hours after treatment. […] All tests were replicated four or more times. The percentage mortality was determined and transformed to arcsine square-root values for analysis of variance (ANOVA). Treatment means were compared and separated by Scheffe's test at the P=0.05 (SAS Institute, 1996). Means (±standard error) of untransformed data are reported. Controls received 40 μl of methanol.

[1] = test system: Dermatophagoides pteronyssinus
Procedure: as §4, §5

Lasioderma serricorne = assay: Insecticidal activity test, treated filter paper in petri dish; assay type: in vivo; conditions: adults, 24 hours
Procedure: as §1, §2, §3

## O=Cc1ccccc1O [salicylaldehyde]
Callosobruchus chinensis; 0.15625 mg/paper
  Mortality (Means ± standard error, %): 68.0 ± 3.9 b %
Callosobruchus chinensis; 0.3125 mg/paper
  Mortality (Means ± standard error, %): 97%
Callosobruchus chinensis; 0.625 mg/paper
  Mortality (Means ± standard error, %): 100%
Callosobruchus chinensis; 1.25 mg/paper
  Mortality (Means ± standard error, %): 100 a %
Callosobruchus chinensis; 2.5 mg/paper
  Mortality (Means ± standard error, %): 100 a %
Callosobruchus chinensis; 5 mg/paper
  Mortality (Means ± standard error, %): 100 a %
Sitophilus oryzae; 0.3125 mg/paper
  Mortality (Means ± standard error, %): 7.0 ± 2.1 b %
Sitophilus oryzae; 0.625 mg/paper
  Mortality (Means ± standard error, %): 97%
Sitophilus oryzae; 1.25 mg/paper
  Mortality (Means ± standard error, %): 100 a %
Sitophilus oryzae; 2.5 mg/paper
  Mortality (Means ± standard error, %): 100 a %
Sitophilus oryzae; 5 mg/paper
  Mortality (Means ± standard error, %): 100 a %
stored-product pests
  insecticidal activity against three species: 100%
Dermatophagoides farinae; 0.125 mg/tube, 24 hr
  Mortality (Means ± standard error, %): 20.0 ± 1.6c %
Dermatophagoides farinae; 0.125 mg/tube, 48 hr
  Mortality (Means ± standard error, %): 27.0 ± 3.8c %
Dermatophagoides farinae; 0.2 mg/tube, 24 hr
  Mortality (Means ± standard error, %): 22.0 ± 1.2c %
Dermatophagoides farinae; 0.2 mg/tube, 48 hr
  Mortality (Means ± standard error, %): 28.0 ± 1.6c %
Dermatophagoides farinae; 0.25 mg/tube, 24 hr
  Mortality (Means ± standard error, %): 26.0 ± 2.0c %
Dermatophagoides farinae; 0.25 mg/tube, 48 hr
  Mortality (Means ± standard error, %): 34.02.6bc %
Dermatophagoides farinae; 0.3 mg/tube, 24 hr
  Mortality (Means ± standard error, %): 27.0 ± 1.9c %
Dermatophagoides farinae; 0.3 mg/tube, 48 hr
  Mortality (Means ± standard error, %): 37.0 ± 1.9bc %
Dermatophagoides farinae; 0.4 mg/tube, 24 hr
  Mortality (Means ± standard error, %): 44.0 ± 2.8b %
Dermatophagoides farinae; 0.4 mg/tube, 48 hr
  Mortality (Means ± standard error, %): 48.0 ± 2.8b %
Dermatophagoides farinae; 0.5 mg/tube, 24 hr
  Mortality (Means ± standard error, %): 99.0%
Dermatophagoides farinae; 0.5 mg/tube, 48 hr
  Mortality (Means ± standard error, %): 100a %
Dermatophagoides farinae; 1 mg/tube, 24 hr
  Mortality (Means ± standard error, %): 100a %
Dermatophagoides farinae; 1 mg/tube, 48 hr
  Mortality (Means ± standard error, %): 100a %
[1]; 0.125 mg/tube, 24 hr
  Mortality (Means ± standard error, %): 0e %
[1]; 0.125 mg/tube, 48 hr
  Mortality (Means ± standard error, %): 0e %
[1]; 0.2 mg/tube, 24 hr
  Mortality (Means ± standard error, %): 6.0 ± 1.1d %
[1]; 0.2 mg/tube, 48 hr
  Mortality (Means ± standard error, %): 9.0 ± 1.0d %
[1]; 0.25 mg/tube, 24 hr
  Mortality (Means ± standard error, %): 7.0 ± 3.0d %
[1]; 0.25 mg/tube, 48 hr
  Mortality (Means ± standard error, %): 8.0 ± 2.8d %
[1]; 0.3 mg/tube, 24 hr
  Mortality (Means ± standard error, %): 22.0 ± 2.6c %
[1]; 0.3 mg/tube, 48 hr
  Mortality (Means ± standard error, %): 27.0 ± 2.5c %
[1]; 0.4 mg/tube, 24 hr
  Mortality (Means ± standard error, %): 44.0 ± 2.8b %
[1]; 0.4 mg/tube, 48 hr
  Mortality (Means ± standard error, %): 46.0 ± 2.6b %
[1]; 0.5 mg/tube, 24 hr
  Mortality (Means ± standard error, %): 89.0%
[1]; 0.5 mg/tube, 48 hr
  Mortality (Means ± standard error, %): 92.0 ± 1.6a %
[1]; 1 mg/tube, 24 hr
  Mortality (Means ± standard error, %): 100a %
[1]; 1 mg/tube, 48 hr
  Mortality (Means ± standard error, %): 100a %
Lasioderma serricorne; 0.3125 mg/paper
  Mortality (Means ± standard error, %): 87% and 86.7 ± 3.3 b %
Lasioderma serricorne; 0.625 mg/paper
  Mortality (Means ± standard error, %): 100%
Lasioderma serricorne; 1.25 mg/paper
  Mortality (Means ± standard error, %): 100 a %
Lasioderma serricorne; 2.5 mg/paper
  Mortality (Means ± standard error, %): 100 a %
Lasioderma serricorne; 5 mg/paper
  Mortality (Means ± standard error, %): 100 a %

— US6855348B2, “Insecticidal composition derived from plants” (priority 2000, dated 2005)
